# Reference: PubChem BioAssay AID652019 (Molecular Libraries Program, Specialized Chemistry Center, …, 2013)
# Active and inactive are the calls of the source.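 Rule for the calls: active = compound whose activity held up on retesting over a range of doses, giving a fitted IC50; inactive = the rest.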
# Test system: E. coli EV36, T7 phage lysis inhibition, OD600
# Test: blocking T7-induced lysis of EV36 cultures – OD600, set 6, selectivity assay for bacterial capsule biogenesis inhibitor project, dose response (AID 652019)
row,SMILES,IC50
1,Cc1cc(NC(=O)c2ccc3nc(NC(=O)OC(C)(C)C)sc3c2)ccn1,0.49 µM
2,Cc1cnccc1NC(=O)c1ccc2nc(N3CCCC3)sc2c1,> 50 µM (inactive)
3,O=C(O)c1ccc2ncsc2c1,> 50 µM (inactive)
4,O=C(Nc1ccnc(Cl)c1)c1ccc2nc(N3CCCC3)sc2c1,> 50 µM (inactive)
5,CC(C)(C)OC(=O)Nc1ccc(NC(=O)c2ccc3nc(N4CCCC4)sc3c2)cn1,> 50 µM (inactive)
6,CC(C)(C)OC(=O)Nc1nc2ccc(C(=O)Nc3ccncc3)cc2s1,> 50 µM (inactive)
7,Cc1nc2ccc(C(=O)Nc3ccncc3)cc2s1,2.54 µM
8,CC(C)(C)OC(=O)Nc1cnccc1NC(=O)c1ccc2nc(N)sc2c1,> 50 µM (inactive)
9,CC(C)(C)OC(=O)Nc1ccc(NC(=O)c2ccc3nc(NC(=O)OC(C)(C)C)sc3c2)cn1,> 50 µM (inactive)
10,Cc1nc2ccc(C(=O)Nc3ccnc(F)c3)cc2s1,> 50 µM (inactive)
11,COc1cc(NC(=O)c2ccc3nc(C)sc3c2)ccn1,3.96 µM
12,Cc1nc2ccc(C(=O)Nc3ccncc3Br)cc2s1,> 50 µM (inactive)
13,O=C(Nc1ccncc1F)c1ccc2ncsc2c1,3.31 µM
14,Nc1nc2ccc(C(=O)Nc3ccncc3F)cc2s1,> 50 µM (inactive)
15,Cc1cnccc1NC(=O)c1ccc2nc(NC(=O)OC(C)(C)C)sc2c1,> 50 µM (inactive)
16,O=C(Nc1ccncc1Br)c1ccc2ncsc2c1,> 50 µM (inactive)
17,COc1cc(NC(=O)c2ccc3nc(N4CCCC4)sc3c2)ccn1,> 50 µM (inactive)
18,Cc1cnccc1NC(=O)c1ccc2nc(N)sc2c1,> 50 µM (inactive)
19,Nc1cnccc1NC(=O)c1ccc2ncsc2c1,> 50 µM (inactive)

row,SMILES,IC50
1,Cc1nc2ccc(C(=O)Nc3cnccc3NC(=O)OC(C)(C)C)cc2s1,> 50 µM (inactive)
2,Cc1nc2ccc(C(=O)Nc3ccncc3C)cc2s1,> 50 µM (inactive)
3,Nc1ccncc1,> 50 µM (inactive)
4,CC(C)(C)OC(=O)Nc1nc2ccc(C(=O)Nc3ccnc(Br)c3)cc2s1,3.66 µM
5,CC(C)(C)OC(=O)Nc1cnccc1NC(=O)c1ccc2ncsc2c1,> 50 µM (inactive)
6,CC(C)(C)OC(=O)Nc1nc2ccc(C(=O)Nc3ccnc(Cl)c3)cc2s1,0.49 µM
7,O=C(Nc1ccncc1)c1ccc2nc(N3CCCC3)sc2c1,> 50 µM (inactive)
8,Cc1cnccc1NC(=O)c1ccc2ncsc2c1,3.58 µM
9,O=C(Nc1ccnc(Br)c1)c1ccc2nc(N3CCCC3)sc2c1,> 50 µM (inactive)
10,O=C(Nc1ccncc1F)c1ccc2nc(N3CCCC3)sc2c1,> 50 µM (inactive)
11,Nc1nc2ccc(C(=O)Nc3ccncc3)cc2s1,> 50 µM (inactive)
12,CC(C)(C)OC(=O)Nc1nc2ccc(C(=O)Nc3ccncc3Br)cc2s1,> 50 µM (inactive)
13,O=C(Nc1ccncc1Br)c1ccc2nc(N3CCCC3)sc2c1,> 50 µM (inactive)
14,COc1cc(NC(=O)c2ccc3nc(NC(=O)OC(C)(C)C)sc3c2)ccn1,> 50 µM (inactive)
15,COc1cc(NC(=O)c2ccc3nc(N)sc3c2)ccn1,0.94 µM
16,Cc1nc2ccc(C(=O)Nc3ccncc3F)cc2s1,> 50 µM (inactive)
17,Cc1cc(NC(=O)c2ccc3nc(N4CCCC4)sc3c2)ccn1,> 50 µM (inactive)
18,CC(C)(C)OC(=O)Nc1nc2ccc(C(=O)Nc3ccnc(F)c3)cc2s1,1.16 µM
